Experimental data taken from patent US20230227466A1, “SUBSTITUTED THIENOPYRIMIDINES THAT INTERACT WITH THE RAS SUPERFAMILY FOR THE TREATMENT OF CANCERS, INFLAMMATORY DISEASES, RASOPATHIES, AND FIBROTIC DISEASE” (SHY Therapeutics, LLC, priority 2020, published 2023).
Where two headings read alike, the source gives them in different places.

What was measured:
[1] = target: T1, Rac-1 (Homo sapiens, UniProt P63000); test: Ras GTP binding domain inhibition assay (labeled-GTP competition, cell-free); parameters: made in house
Excerpt: (§1) This is a competitive binding assay. It involves the immobilization of a protein on solid phase, interaction with a small molecule drug candidate, and then competitive binding with a labeled native GTP or GDP ligand.
(§2) In theory, the assay is suitable for use with any GTP or GDP binding protein.
(§3) The following method was developed as specific assay for the following proteins: KRas wild type, KRas Q61H mutant, KRas G12C mutant, KRas G12D mutant, Rac-1, and Rho-A.
(§4) The small GTPases proteins: KRas wild type. KRas Q61H mutant, KRas G12C mutant, KRas G12D mutants, Rac-1, and Rho-A were expressed as His-tagged proteins. In addition, the Guanosine nucleotide Exchange Factor (GEF) Sos protein (residues 556-1049) was expressed as a His-tagged protein. In cells, the guanine nucleotide exchange factor Sos protein promotes activation of Ras proteins by stimulating an exchange of GDP for GTP. The inclusion of Sos to the Ras GTP binding domain inhibition assay may be considered as an alternative representation of physiological cellular conditions for evaluating the inhibitory activity of some of the tested small molecules.
(§5) For the assay, all purified small GTPases proteins were diluted in Buffer-I or Buffer-II to a final concentration of 10-30 μg/mL. 200 μL of each diluted protein was added to a nickel-coated 96-well plate and incubated overnight at 4° C. Then the protein solution was discarded and 200 μL of Buffer-I or Buffer-II was added to each well in the presence of 1% DMSO. Compounds to be tested were added to the protein-coated wells at final concentration of 20 μM, and incubated for 3 hours at room temperature with and without 10-30 μg/mL of Sos added to the final hour of the incubation. When performing IC50 measurements a serial dilution of all tested concentrations was added. Then Cy3-GTP or Cy5-GTP was added to each well to a final concentration of 100 nM. The labeled GTP was incubated for 45 minutes at room temperature. Following GTP incubation, wells were washed 3× in Buffer-I or Buffer-II and 200 μL of Buffer-I or Buffer-II was added to each well. Following washes, the amount of bound labeled-GTP was measured using a SpectraMax M3 (Molecular Devices).

[2] = target: T2, Rho-A (Homo sapiens, UniProt P61586); test: as above; parameters: made in house
Excerpt: as §1, §2, §3, §4, §5

[3] = target: T3, KRas wild type (Homo sapiens, UniProt P01116); test: as above; parameters: made in house
Excerpt: as §1, §2, §3, §4, §5

[4] = target: T4, KRas G12D mutant (Homo sapiens, UniProt P01116, G12D); test: as above
T4 construct: made in house
Excerpt: as §1, §2, §3, §4, §5

[5] = target: T5, KRas G12C mutant (Homo sapiens, UniProt P01116, G12C); test: as above
T5 construct: made in house
Excerpt: as §1, §2, §3, §4, §5

[6] = target: T6, KRas Q61H mutant (Homo sapiens, UniProt P01116, Q61H); test: as above
T6 construct: made in house
Excerpt: as §1, §2, §3, §4, §5

[7] = system: MIA-PaCa-2 pancreatic cancer cell line (KRAS G12C); test: Cell proliferation assay (CellTiter 96 Aqueous One); type: cell-based; conditions: Homo sapiens
Method: Cell lines: Human tumor-derived cell lines were purchased from American Type Culture Collection. Human tumor-derived pancreatic cancer cell line MIA-PACA2 (having a KRAS G12C mutation) and Panc-1 (having a KRAS G12D mutation), and Human non-small cell lung cancer (NSCLC) cell line A549 (having a KRAS G12S mutation) were grown in complete DMEM-High Glucose. Human colon cancer cell line SW-620 (having a KRAS G12V mutation) was grown in RPMI. All cell lines were supplemented with penicillin (100 U/mL), streptomycin (100 μg/mL), and 10% heat-inactivated FBS at 37° C. in a humidified incubator with 5% CO2.
Method: Cells were plated at 2000 to 5000 cells/well density in 96-wells plate and cultured overnight. Small molecules to be tested were added to the cells in the final concentration of 10 μM in the presence of 0.3% DMSO and 10% FBS, and incubated for 2-4 days at 37° C. in a humidified incubator with 5% CO2. For IC50 value determination, serial dilutions of compounds were added to cells under the same conditions.
Assay: At the end of the incubation period, cell viability was measured using the CellTiter 96® Aqueous One Solution Cell Proliferation Assay according to manufacturer specifications (Promega, Madison, Wis.). The percentage of small molecules inhibition of cellular proliferation was calculated from raw data.

[8] = target: GTP binding domain of Ras (Homo sapiens, UniProt P01112); conditions: literature (Feuerstein 1987; John 1990); cited from earlier work
[9] = target: K-Ras GTP binding domain (wild type and mutant K-Ras); test: SPA and MST studies, GTP affinity across K-Ras forms
Excerpt: (§6) This therefore led to the novel, unanticipated conclusion that compounds such as small molecules could be discovered that would bind to a Ras GTP binding domain and compete with the binding of GTP to Ras.
(§7) See Khawaja et al., “Scintillation proximity assay in lead discovery”, Expert Opin. Drug Discov., 2008 November; 3(11):1267-80 regarding SPA procedures. See the following references regarding MST technology: Wienken et al., Nature Communications (2010), Protein binding assays in biological liquids using MicroScale Thermophoresis; Jerabek-Willemsen et al., ASSAY and Drug Development Technologies (2011), Molecular interaction studies using MicroScale Thermophoresis; Lin et al., Cell (2012), Inhibition of basal FGF receptor signaling by dimeric Grb2; Seidel et al., Angewandte Chemie (2012), Label-Free MicroScale Thermophoresis discriminates sites and affinity of protein-ligand binding; Seidel et al., Methods (2012), MicroScale Thermophoresis quantifies biomolecular interactions under previously challenging conditions; Parker & Newstead, Nature (2014), Molecular basis of nitrate uptake by the plant nitrate transporter NRT1.1; and Jerabek-Willemsen et al., Journal of Molecular Structure (2014), MicroScale Thermophoresis: Interaction analysis and beyond.

[10] = target: T2, Rho-A; test: Scintillation Proximity Assay (SPA) GTP affinity; conditions: read-out: SPA GTP affinity for binding domain
[11] = target: T7, K-Ras (Q61H) (Homo sapiens, UniProt P01116, Q61H); test: Scintillation Proximity Assay (SPA) GTP affinity; conditions: read-out: SPA GTP affinity for binding domain
Excerpt: (§8) As disclosed in International Application No. PCT/US2018/038613 and U.S. patent application Ser. No. 16/013,872, the affinity of GTP for the GTP binding domain of K-Ras utilizing a Scintillation Proximity Assay (SPA) and MicroScale Thermophoresis (MST) has been measured. These methods were not available when Wittinghofer and colleagues undertook their studies.
as §6, §7

[12] = target: T8, K-Ras (G12C) (Homo sapiens, UniProt P01116, G12C); test: Scintillation Proximity Assay (SPA) GTP affinity; conditions: read-out: SPA GTP affinity for binding domain
Excerpt: as §8, §6, §7

[13] = target: T9, K-Ras (G12D) (Homo sapiens, UniProt P01116, G12D); test: Scintillation Proximity Assay (SPA) GTP affinity; conditions: read-out: SPA GTP affinity for binding domain
Excerpt: as §8, §6, §7

[14] = target: T3, KRas wild type; test: Scintillation Proximity Assay (SPA) GTP affinity; conditions: read-out: SPA GTP affinity for binding domain
Excerpt: as §8, §6, §7

[15] = target: T7, K-Ras (Q61H); test: MicroScale Thermophoresis (MST) GTP affinity; conditions: read-out: MST GTP affinity for binding domain
Excerpt: as §8, §6, §7

[16] = target: T8, K-Ras (G12C); test: MicroScale Thermophoresis (MST) GTP affinity; conditions: read-out: MST GTP affinity for binding domain
Excerpt: as §8, §6, §7

[17] = target: T1, Rac-1; test: MicroScale Thermophoresis (MST) GTP affinity; conditions: read-out: MST GTP affinity for binding domain
Excerpt: as §8, §6, §7

[18] = target: T2, Rho-A; test: MicroScale Thermophoresis (MST) GTP affinity; conditions: read-out: MST GTP affinity for binding domain
Excerpt: as §8, §6, §7

[19] = target: T9, K-Ras (G12D); test: MicroScale Thermophoresis (MST) GTP affinity; conditions: read-out: MST GTP affinity for binding domain
Excerpt: as §8, §6, §7

[20] = target: T3, KRas wild type; test: MicroScale Thermophoresis (MST) GTP affinity; conditions: read-out: MST GTP affinity for binding domain
Excerpt: as §8, §6, §7

[21] = target: Rac-1 and Rho-A; test: SPA and MST studies, GTP affinity for Rho subfamily members; conditions: read-out: affinity of GTP for the binding domain of Rac-1 and Rho-A members of the Rho subfamily
Excerpt: as §6, §7

[22] = target: T1, Rac-1; test: Scintillation Proximity Assay (SPA) GTP affinity; conditions: read-out: SPA GTP affinity for binding domain
[23] = without SOS, read-out: Rac-1: % inh.
[24] = without SOS, read-out: Rho-A: % inh.
[25] = with SOS, read-out: KRas wild type + SOS: % inh.
[26] = without SOS, read-out: KRas wild type: % inh.
[27] = with SOS, read-out: KRas G12D mutant + SOS: % inh.
[28] = without SOS, read-out: KRas G12D mutant: % inh.
[29] = with SOS, read-out: KRas G12C mutant + SOS: % inh.
[30] = without SOS, read-out: KRas G12C mutant: % inh.
[31] = with SOS, read-out: KRas Q61H mutant + SOS: % inh.
[32] = without SOS, read-out: KRas Q61H mutant: % inh.

Compound `Oc1nc(-c2ccccn2)nc2c(-c3ncccc3F)csc12` [Compound 27, 7-(3-Fluoropyridin-2-yl)-2-(pyridin-2-yl)thieno[3,2-d]pyrimidin-4-ol] has an inhibition at 20 µM ([1]; with SOS, read-out: Rac-1 + SOS: % inh.) of 76 to 100%, an inhibition at 20 µM [1, 23] of 76 to 100% and an inhibition at 20 µM ([2]; with SOS, read-out: Rho-A + SOS: % inh.) of 76 to 100%. The inhibition at 20 µM [2, 24] was 76 to 100%, the inhibition at 20 µM [3, 25] was 76 to 100% and the inhibition at 20 µM [3, 26] was 76 to 100%. For the same compound, the inhibition at 20 µM [4, 27] was 76 to 100%, the inhibition at 20 µM [4, 28] was 51 to 75% and the inhibition at 20 µM [5, 29] was 76 to 100%. For the same compound, the inhibition at 20 µM [5, 30] was 51 to 75%, the inhibition at 20 µM [6, 31] was 76 to 100% and the inhibition at 20 µM [6, 32] was 51 to 75%. It also gave an IC50 ([6]; with SOS) of 1000 to 4990 nM, an IC50 ([7]; MIA PaCa-2, MIA PaCa-2) of 1 to 4.99 µM and an inhibition at 10 µM ([7]; 10 μM, MIA PaCa-2, read-out: % inh cell proliferation (10 μM) in MIA PaCa-2) of 76 to 100%.
Work on `Oc1nc(-c2ccc3[nH]ncc3n2)nc2c(-c3ccccn3)csc12` [Compound 93, 2-(1H-Pyrazolo[4,3-b]pyridin-5-yl)-7-(pyridin-2-yl)thieno[3,2-d]pyrimidin-4-ol] yielded an inhibition at 20 µM [1, 23] of 1 to 25%, an inhibition at 20 µM [2, 24] of 51 to 75% and an inhibition at 20 µM [3, 25] of 0%. For the same compound, the inhibition at 20 µM [3, 26] was 26 to 50%, the inhibition at 20 µM [4, 27] was 1 to 25% and the inhibition at 20 µM [4, 28] was 26 to 50%. For the same compound, the inhibition at 20 µM [5, 29] was 1 to 25%, the inhibition at 20 µM [5, 30] was 26 to 50% and the inhibition at 20 µM [6, 31] was 1 to 25%. For the same compound, the inhibition at 20 µM [6, 32] was 1 to 25%.
In the case of `Nc1nc2c(ncn2[C@@H]2O[C@H](COP(=O)(O)OP(=O)(O)O)[C@@H](O)[C@H]2O)c(=O)[nH]1` [GDP], the “affinity for the GTP binding domain of Ras” value [8] is listed as “single to double digit picomolar”.
`Nc1nc2c(ncn2[C@@H]2O[C@H](COP(=O)(O)OP(=O)(O)OP(=O)(O)O)[C@@H](O)[C@H]2O)c(=O)[nH]1` [GTP] showed a Kd [9] of 100 to 465 nM, a Kd [10] of 129 ± 12 nM and a Kd [11] of 118 ± 11 nM. The Kd [12] was 258 ± 18 nM, the Kd [13] was 270 ± 15 nM and the Kd [14] was 243 ± 15 nM. For the same compound, the Kd [15] was 157 ± 21 nM, the Kd [16] was 207 ± 46 nM and the Kd [17] was 166 ± 10 nM. For the same compound, the Kd [18] was 130 ± 5 nM, the Kd [19] was 244 ± 12 nM and the Kd [20] was 463 ± 2 nM. For the same compound, the Kd [21] was 120 to 170 nM, the “affinity for the GTP binding domain of Ras” value [8] was “single to double digit picomolar” and the Kd [22] was 151 ± 14 nM.
